Data set [1] concerns yeast cells expressing functional yeast topoisomerase I. The experiment in a line: Yeast cytotoxicity assay, strain expressing wild-type yeast topo I. Format: cell-based, S. cerevisiae. Conditions: plates with 1 µM drug (camptothecin 0.5 µM), 3 days at 30°C. From the text: (§1) It has been established that yeast can survive when topoisomerase I function is obliterated, and that the topoisomerase I poisons only kill cells having a functional topoisomerase I (Bjornsti et al. Cancer Res. 49:6318-6323 (1989)).
(§2) The topoisomerase I-specific in vivo cytotoxicity assay was adapted from Knab et al. (Knab et al., J. Biol. Chem. 268:22322-22330 (1993)). In this system, various topo I genes cloned into the single copy yeast plasmid vector, YCpGAL1 (Knab et al., J. Biol. Chem. 268:22322-22330 (1993)), are expressed under the control of the GAL1 promoter in the JN2-134 strain of S. cerevisiae (MATa, rad52::LEU2, trp1, ade2-1,his7, ura3-52, isel, top1-1, leu2) (Bjornsti et al., Cancer Res. 49:6318-6323 (1989)). The topo I constructs in the vector are, respectively, the wild-type yeast topo I (YCpGAL-ScTOP1), a non-functional yeast topo I where the active site tyrosine-727 is mutated to a phenylalanine (YCpGAL1-Sctop1Y727F) (Knab et al., J. Biol. Chem. 268:22322-22330 (1993)), and the wild type human topoisomerase I (YCpGAL-hTOP1) (Bjornsti et al., Cancer Res. 49:6318-6323 (1989)). To qualitatively test the cytotoxicity and the topo I specificity of the drugs, yeast cells containing the specific plasmid were serially diluted (5-fold) and were grown in dropout medium supplemented with uracil and 2% galactose In addition, the plates contained: A: Control, no drug in the plate; B: Camptothecin (CPT), 0.5 µM; C: Coralyne, 1 µM; D: Methylenedioxy-dihydro-demethyl-coralyne (MDD-Coralyne), 1 µM, and E: Nitidine, 1 µM. The plates were grown for 3 days at 30°C to assess the lethal effect of the different compounds on the various topoisomerase I enzymes expressed in S. cerevisiae.and the drug being tested.

Data set [2] addresses T1, recombinant CPT-K5 topoisomerase I (Homo sapiens, UniProt P11387, D533G).
T1 construct: 15 amino acid vector-derived fusion (pET-11a leader); made in house; host or cells: E. coli BL21(DE3)
T1 sequence (P11387 1-765 D533G): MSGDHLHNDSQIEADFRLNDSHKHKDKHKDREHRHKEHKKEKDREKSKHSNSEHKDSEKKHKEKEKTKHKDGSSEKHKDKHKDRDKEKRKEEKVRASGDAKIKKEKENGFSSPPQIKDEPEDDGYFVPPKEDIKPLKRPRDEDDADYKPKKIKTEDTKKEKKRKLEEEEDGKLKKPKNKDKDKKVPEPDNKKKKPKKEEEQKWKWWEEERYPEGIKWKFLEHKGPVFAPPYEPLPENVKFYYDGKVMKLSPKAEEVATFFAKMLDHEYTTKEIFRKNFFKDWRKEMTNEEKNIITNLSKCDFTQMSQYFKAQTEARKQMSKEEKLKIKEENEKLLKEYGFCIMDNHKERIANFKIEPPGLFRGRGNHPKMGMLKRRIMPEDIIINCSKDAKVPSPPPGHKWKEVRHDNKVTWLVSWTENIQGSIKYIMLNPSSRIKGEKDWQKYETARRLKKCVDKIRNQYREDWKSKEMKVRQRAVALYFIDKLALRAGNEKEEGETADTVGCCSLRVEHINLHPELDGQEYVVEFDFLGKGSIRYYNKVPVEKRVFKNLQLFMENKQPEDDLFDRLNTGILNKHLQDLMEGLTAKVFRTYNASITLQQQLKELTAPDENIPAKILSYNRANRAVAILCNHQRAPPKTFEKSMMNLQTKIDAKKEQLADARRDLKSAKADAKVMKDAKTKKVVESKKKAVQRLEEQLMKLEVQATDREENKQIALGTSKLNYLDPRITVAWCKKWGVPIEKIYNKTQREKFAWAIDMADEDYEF
The data set can be described thus: Cleavage assay with camptothecin-resistant mutant topo I. Format: biochemical. Particulars: relative to wildtype human topoisomerase I. Here is the method:
Cleavage assays for the recombinant topoisomerases I and calf thymus topoisomerases I and II were done as described (Liu et al., J. Biol. Chem. 258:15365-15370 (1983)). The plasmid YEpG DNA used for the cleavage assays was prepared and labeled at its 3'-end using the published procedures.

Data set [3] has as its system yeast cells expressing non-functional yeast topoisomerase I. The data set can be described thus: Yeast cytotoxicity assay, strain expressing non-functional yeast topo I. Format: cell-based, S. cerevisiae. Particulars: plates with 1 µM drug (camptothecin 0.5 µM), 3 days at 30°C.
Text: as §1, §2

Data set [4] deals with yeast cells expressing human topoisomerase I. The experiment in a line: Yeast cytotoxicity assay, strain expressing human topo I. Format: cell-based, S. cerevisiae. Conditions: plates with 1 µM drug (camptothecin 0.5 µM), 3 days at 30°C.
Text: as §1, §2

On to `COc1cc2c[n+](C)c3c4cc5c(cc4ccc3c2cc1OC)OCO5` [Nitidine, nitidine], for which, in data set [1], the “cytotoxicity against yeast cells expressing functional yeast topoisomerase I (in words)” value was “not cytotoxic”. Moreover, the “resistance of recombinant CPT-K5 topoisomerase I to the drug” value in data set [2] is “less than 10 fold”. Further, the “cytotoxicity against yeast cells expressing non-functional yeast topoisomerase I (in words)” value in data set [3] is “not cytotoxic”. In addition, the “cytotoxicity against yeast cells expressing human topoisomerase I (in words)” value in data set [4] is given as “highly cytotoxic”.

(Values after patent EP0888346B1, “CORALYNE ANALOGS AS TOPOISOMERASE INHIBITORS” (RUTGERS, THE STATE UNIVERSITY OF NEW JERSEY, priority 1996, dated 1997).)
